How the values were obtained:
[1] = system: Williams-NMU-1 M2 seedlings; assay: Hydroponic selection of M2 seeds with Compound 1; format: in vivo, soybean; details: 100 ppb
Experimental: Four Modified Hydropot Solo units were prepared as described in the Detailed Description by filling the planting tanks with a 5 cm layer of pea gravel followed by a 10 cm layer of fine vermiculite. M2 seeds of the William-NMU-1 were densely planted (approx. 16,600 seeds per square meter) by placing the seeds in a single horizontal layer on top of the vermiculite and then covering the seeds with a second level 2.5 cm layer of vermiculite. The nutrient solution reservoir was filled with tap water supplemented with 100 ppb of Compound 1 as the selective agent. Plant tanks were irrigated with the Compound 1 solution for four 30 minute periods per day beginning at 12 midnight, 8 AM, 12 noon, and 4 pm. […] The W20 plant was gently removed from the from the hydroponic planting tank and transplanted into a 20 cm pot containing a standard peat-based potting mixture. […] This observation led the applicant to believe that W20 represented a new class of resistant mutants. W20 was allowed to reach maturity under greenhouse conditions and produce an M3 line that was also referred to as W20.
M2 seeds of the Williams-NMU-1 treatment (Table II) were densely planted (approximately 16,600 seeds Per m2) on top of a level 7 cm layer of granular vermiculite supported by the upper chamber of the planting tank of the previously described large hydroponic selection system. […]

[2] = system: Acetolactate synthase (ALS) from leaves of W20; assay: Test D ALS assay with chlorsulfuron; format: biochemical, soybean
Experimental: (§1) Acetolactate synthase (ALS) was extracted from leaves of soybean plants growing vegetatively. The leaves were homogenized in 4 volumes of buffer containing 100 mM hepes (pH 7.5), 1 mM sodium pyruvate, 0.5 mM magnesium chloride, 0.5 mM thiamine pyrophosphate, […], 10% glycerol, 5% PVPP, and 0.2% mercaptoethanol. The homogenate was filtered through cheese cloth and centrifuged at 20,000 g for 20 min. ALS was precipitated from the supernatant with ammonium sulfate. The enzyme was collected between 20 and 60% saturation by centrifugation at 20,000 g for 20 min. The pellet was resuspended in buffer containing 100 mM Hepes, 1 mM sodium pyruvate, and 0.5 mM magnesium chloride, and desalted on PD-10 columns (Pharmacia) equilibrated with the same buffer. ALS assays were carried out in a final volume of 0.5 mL at 30° C. The final reaction mixture contained 100 mM Hepes (pH 7.5), 1 mM magnesium chloride, 60 mM sodium pyruvate, 0.4 mM thiaminepyrophosphate, […], and various concentrations of chlorsulfuron. The assays were initiated with the addition of enzyme ([…]) and terminated with the addition of […] of 6N sulfuric acid. The acidified reaction mixture was heated to 60° C. for 15 min, after which 0.5 mL of 0.5% (W/V) creatine and 0.5 mL of 5% (W/V) napthol (freshly prepared in 2.5 N sodium hydroxide) were added. The reaction mixtures were heated for an additional 15 min at 60° C., and the absorbance was read at 525 nm. Data are expressed in terms of % control (minus Compound 1) activity and are the average of two replications. Fisher's least significant difference (LSD) value (at the 95% level of confidence) was calculated for each Compound 1 concentration to determine the significance of genotype mean differences.

[3] = system: Acetolactate synthase (ALS) from leaves of W28; assay: Test D ALS assay with chlorsulfuron; format: biochemical, soybean
Experimental: as §1

[4] = system: Acetolactate synthase (ALS) from leaves of Williams 82; assay: Test D ALS assay with chlorsulfuron; format: biochemical, soybean
Experimental: as §1

[5] = system: Acetolactate synthase (ALS) from leaves of W23; assay: Test D ALS assay with chlorsulfuron; format: biochemical, soybean
Experimental: as §1

[6] = system: Acetolactate synthase (ALS) from leaves of W19; assay: Test D ALS assay with chlorsulfuron; format: biochemical, soybean
Experimental: as §1

[7] = system: mutants that have heritable sulfonylurea tolerance; assay: Pilot studies, threshold concentration in hydroponic system; format: in vivo, soybean; details: sulfonylurea tolerant mutants, 100 mg/L used to irrigate the hydroponic system
Excerpt: (§2) The same sulfonylurea concentrations would select only highly resistant plants.

wild type soybeans = assay: as above; format: in vivo, soybean; details: 100 mg/L used to irrigate the hydroponic system
Excerpt: as §2

COc1nc(C)nc(NC(=O)NS(=O)(=O)c2ccccc2Cl)n1 [Compound 1, 2-chloro-N-[[(4-methoxy-6-methyl-1,3,5-triazin-2-yl)amino]carbonyl]benzenesulfonamide]
effect on surrounding seedlings ([1]; Modified Hydropot Solo units, twelve days after planting): lethal to the surrounding seedlings | effect on background of wild type seedlings ([1]; large hydroponic unit, 8 days after planting): uniformly inhibited | uninhibited ALS activity (% of control) ([2]; W20, chlorsulfuron 10 mg/l-l): 50.6 % of control | uninhibited ALS activity (% of control) ([2]; W20, chlorsulfuron 20 mg/l-l): 35.2 % of control | uninhibited ALS activity (% of control) ([2]; W20, chlorsulfuron 50 mg/l-l): 31.1 % of control | uninhibited ALS activity (% of control) ([2]; W20, chlorsulfuron 100 mg/l-l): 20.8 % of control | uninhibited ALS activity (% of control) ([2]; W20, chlorsulfuron 200 mg/l-l): 19.0 % of control | uninhibited ALS activity (% of control) ([3]; W28, chlorsulfuron 10 mg/l-l): 54.6 % of control | uninhibited ALS activity (% of control) ([3]; W28, chlorsulfuron 20 mg/l-l): 46.1 % of control | uninhibited ALS activity (% of control) ([3]; W28, chlorsulfuron 50 mg/l-l): 42.8 % of control | uninhibited ALS activity (% of control) ([3]; W28, chlorsulfuron 100 mg/l-l): 36.4 % of control | uninhibited ALS activity (% of control) ([3]; W28, chlorsulfuron 200 mg/l-l): 34.3 % of control | uninhibited ALS activity (% of control) ([4]; WM 82, chlorsulfuron 10 mg/l-l): 41.1 % of control | uninhibited ALS activity (% of control) ([4]; WM 82, chlorsulfuron 20 mg/l-l): 26.3 % of control | uninhibited ALS activity (% of control) ([4]; WM 82, chlorsulfuron 50 mg/l-l): 15.0 % of control | uninhibited ALS activity (% of control) ([4]; WM 82, chlorsulfuron 100 mg/l-l): 11.1 % of control | uninhibited ALS activity (% of control) ([4]; WM 82, chlorsulfuron 200 mg/l-l): 8.5 % of control | uninhibited ALS activity (% of control) ([5]; W23, chlorsulfuron 10 mg/l-l): 55.3 % of control | uninhibited ALS activity (% of control) ([5]; W23, chlorsulfuron 20 mg/l-l): 46.3 % of control | uninhibited ALS activity (% of control) ([5]; W23, chlorsulfuron 50 mg/l-l): 38.9 % of control | uninhibited ALS activity (% of control) ([5]; W23, chlorsulfuron 100 mg/l-l): 37.4 % of control | uninhibited ALS activity (% of control) ([5]; W23, chlorsulfuron 200 mg/l-l): 34.0 % of control | uninhibited ALS activity (% of control) ([6]; W19, chlorsulfuron 10 mg/l-l): 60.7 % of control | uninhibited ALS activity (% of control) ([6]; W19, chlorsulfuron 20 mg/l-l): 54.5 % of control | uninhibited ALS activity (% of control) ([6]; W19, chlorsulfuron 50 mg/l-l): 48.7 % of control | uninhibited ALS activity (% of control) ([6]; W19, chlorsulfuron 100 mg/l-l): 45.7 % of control | uninhibited ALS activity (% of control) ([6]; W19, chlorsulfuron 200 mg/l-l): 40.8 % of control | leaf formation [7]: allow unifoliolate (but not trifoliolate) formation | leaf and root development (wild type soybeans): consistently stunt or inhibit leaf and root development
